Data reported in patent US12398147B2, “Macrocyclic spiropyrrolidine derived antiviral agents” (Enanta Pharmaceuticals, Inc., priority 2021, dated 2025).
Read-outs that look alike come from different tables or passages of the source.

Legend:
[1] = test system: 229E human corona virus (hCoV); assay: 229E Cellular Assay (MRC5), live virus assay, ATPlite; assay type: cell-based, hCoV-229E; conditions: read-out: EC50 (229E)
SARS-CoV-2 3CL-protease = SARS-CoV-2 3CL-protease (Severe acute respiratory syndrome coronavirus 2 (2019-nCoV) (SARS-CoV-2), UniProt P0DTD1); assay: biochemical
in vitro = conditions: African green monkey
SARS-CoV-2 USA-WA1/2020 = assay: SARS-CoV-2 Cellular Assay (Vero 76), inhibition of CPE, neutral red; assay type: cell-based; conditions: Severe acute respiratory syndrome coronavirus 2, 144 h; Vero 76 cells infected with SARS-CoV-2 USA-WA1/2020, day 6, neutral red CPE
[2] = Human coronavirus 229E, MRC5, 144 h, MRC-5 cells, hCoV-229E MOI 0.05, 6 days, ATPlite
[3] = recombinant SARS-CoV-2 3CL-protease 10 nM, 30 min preincubation, read-out: FRET IC50

SMILES	EC50 [1, 2]	IC50 (SARS-CoV-2 3CL-protease; [3])	further results
CC(C)C[C@H]1C(=O)N2C[C@]3(C[C@H]2C#N)C(=O)Nc2ccc(cc23)CCCCCN1C(=O)c1cnn(C(C)(C)C)c1 [Example 17]	< 100 nM	< 100 nM	–
CC(C)C[C@H]1C(=O)N2C[C@]3(C[C@H]2C#N)C(=O)Nc2ccc(cc23)CCCCCN1C(=O)c1cc2c(F)cc(F)cc2[nH]1 [Example 4]	< 100 nM	< 100 nM	CC50 (in vitro): 1000 to 50000 nM; EC50 (SARS-CoV-2 USA-WA1/2020): < 1000 nM
CC(C)C[C@H]1C(=O)N2C[C@]3(C[C@H]2C#N)C(=O)Nc2ccc(cc23)CCCCCN1C(=O)c1cnn(-c2ccc(F)cc2F)c1 [Example 23]	< 100 nM	< 100 nM	–
CC(C)C[C@H]1C(=O)N2C[C@]3(C[C@H]2C#N)C(=O)Nc2ccc(cc23)C(O)CCCCN1C(=O)c1cc2c(F)cc(F)cc2[nH]1 (stereo partly shown) [Example 26]	< 100 nM	< 100 nM	–
N#C[C@@H]1C[C@]23CN1C(=O)[C@H](Cc1ccccc1)N(C(=O)c1cn(-c4ccc(F)cc4)nn1)CCCCCc1ccc(c2c1)NC3=O [Example 10]	–	< 100 nM	CC50 (in vitro): 1000 to 50000 nM; EC50 (SARS-CoV-2 USA-WA1/2020): < 1000 nM
CCCC[C@H]1C(=O)N2C[C@]3(C[C@H]2C#N)C(=O)Nc2ccc(cc23)CCCCCN1C(=O)c1cc2c(F)cc(F)cc2[nH]1 [Example 15]	< 100 nM	< 100 nM	–
CCCC[C@H]1C(=O)N2C[C@]3(C[C@H]2C#N)C(=O)Nc2ccc(cc23)CCCCCN1C(=O)c1cn(-c2cc(F)c(F)cc2F)nn1 [Example 16]	< 100 nM	< 100 nM	–
CCCC[C@H]1C(=O)N2C[C@]3(C[C@H]2C#N)C(=O)Nc2ccc(cc23)CCCCCN1C(=O)c1cc2c(F)cc(F)c(F)c2[nH]1 [Example 19]	< 100 nM	< 100 nM	–
N#C[C@@H]1C[C@]23CN1C(=O)[C@H](Cc1ccccc1)N(C(=O)c1cc4c(F)cc(F)cc4[nH]1)CCCCCc1ccc(c2c1)NC3=O [Example 9]	< 100 nM	< 100 nM	CC50 (in vitro): 1000 to 50000 nM; EC50 (SARS-CoV-2 USA-WA1/2020): < 1000 nM
CC(C)C[C@H]1C(=O)N2C[C@]3(C[C@H]2C#N)C(=O)Nc2ccc(cc23)CCCCCN1C(=O)c1cc2ccc(C(F)(F)F)cc2[nH]1 [Example 6]	< 100 nM	100 to 1000 nM	–
CC(C)C[C@H]1C(=O)N2C[C@]3(C[C@H]2C#N)C(=O)Nc2ccc(cc23)CCCCCCN1C(=O)c1cc2c(F)cc(F)cc2[nH]1 [Example 8]	100 to 1000 nM	100 to 1000 nM	–
CC(C)C[C@H]1C(=O)N2C[C@]3(C[C@H]2C#N)C(=O)Nc2ccc(cc23)CCCCCN1C(=O)c1cn(C2CC2)nn1 [Example 14]	< 100 nM	< 100 nM	CC50 (in vitro): 1000 to 50000 nM; EC50 (SARS-CoV-2 USA-WA1/2020): < 1000 nM
CC(C)C[C@H]1C(=O)N2C[C@]3(C[C@H]2C#N)C(=O)Nc2ccc(cc23)CCCCCN1C(=O)OCc1ccccc1 [Example 2]	100 to 1000 nM	< 100 nM	–
CC(C)C[C@H]1C(=O)N2C[C@]3(C[C@H]2C#N)C(=O)Nc2ccc(cc23)CCCCCN1C(=O)c1nnc(-c2ccccc2)[nH]1 [Example 13]	100 to 1000 nM	–	IC50 (SARS-CoV-2 3CL-protease): 100 to 1000 nM
CC(C)C[C@H]1C(=O)N2C[C@]3(C[C@H]2C#N)C(=O)Nc2ccc(cc23)CCCCCN1C(=O)c1cn(C2CCC2)nn1 [Example 12]	< 100 nM	< 100 nM	–
CC(C)(C)C[C@H]1C(=O)N2C[C@]3(C[C@H]2C#N)C(=O)Nc2ccc(cc23)CCCCCN1C(=O)c1cc2c(F)cc(F)cc2[nH]1 [Example 20]	< 100 nM	< 100 nM	–
CC(C)C[C@H]1C(=O)N2C[C@]3(C[C@H]2C#N)C(=O)Nc2ccc(cc23)OCCCCN1C(=O)c1cc2c(F)cc(F)cc2[nH]1 [Example 28]	< 100 nM	< 100 nM	–
CC(C)C[C@H]1C(=O)N2C[C@]3(C[C@H]2C#N)C(=O)Nc2ccc(cc23)CCCCCN1C(=O)c1cnn(-c2ccc(Cl)cc2Cl)c1 [Example 25]	–	< 100 nM	–
CC(C)C[C@H]1C(=O)N2C[C@]3(C[C@H]2C#N)C(=O)Nc2ccc(cc23)/C=C\CCN1C(=O)OCc1ccccc1 [Example 3]	–	< 100 nM	EC50 ([1]; Human coronavirus 229E, MRC5, 144 h): 100 to 1000 nM
CC(C)C[C@H]1C(=O)N2C[C@]3(C[C@H]2C#N)C(=O)Nc2ccc(cc23)CCCCCN1C(=O)C(=O)NC1(c2ccc(F)cc2F)CC1 [Example 24]	< 100 nM	< 100 nM	–
CC(C)C[C@H]1C(=O)N2C[C@]3(C[C@H]2C#N)C(=O)Nc2ccc(cc23)CCCCCN1C(=O)c1cnn(-c2ccc(C(F)(F)F)cc2)c1 [Example 18]	< 100 nM	< 100 nM	–
CC(C)C[C@H]1C(=O)N2C[C@]3(C[C@H]2C#N)C(=O)Nc2ccc(cc23)C(=O)CCCCN1C(=O)c1cc2c(F)cc(F)cc2[nH]1 [Example 27]	< 100 nM	< 100 nM	–
CC(C)C[C@H]1C(=O)N2C[C@]3(C[C@H]2C#N)C(=O)Nc2ccc(cc23)CCCCCN1C(=O)c1cc2c(F)cc(F)c(F)c2[nH]1 [Example 5]	< 100 nM	< 100 nM	CC50 (in vitro): 1000 to 50000 nM; EC50 (SARS-CoV-2 USA-WA1/2020): < 1000 nM
CC(C)C[C@H]1C(=O)N2C[C@]3(C[C@H]2C#N)C(=O)Nc2ccc(cc23)CCCCCN1C(=O)c1cnn(-c2ccccc2C(F)(F)F)c1 [Example 21]	< 100 nM	< 100 nM	–
CC(C)C[C@H]1C(=O)N2C[C@]3(C[C@H]2C#N)C(=O)Nc2ccc(cc23)CCCCCN1C(=O)c1nnn(-c2ccccc2)n1 [Example 11]	100 to 1000 nM	< 100 nM	–
CC(C)C[C@H]1C(=O)N2C[C@]3(C[C@H]2C#N)C(=O)Nc2ccc(cc23)OCCCCN1C(=O)C(=O)NC1(c2ccc(F)cc2F)CC1 [Example 29]	–	< 100 nM	–
CC(C)C[C@H]1C(=O)N2C[C@]3(C[C@H]2C#N)C(=O)Nc2ccc(cc23)CCCCCN1C(=O)c1cn(-c2ccccc2)nn1 [Example 7]	< 100 nM	< 100 nM	CC50 (in vitro): 1000 to 50000 nM; EC50 (SARS-CoV-2 USA-WA1/2020): < 1000 nM
CC(C)C[C@H]1C(=O)N2C[C@]3(C[C@H]2C#N)C(=O)Nc2ccc(cc23)CCCCCN1C(=O)c1cnn(-c2ccccc2Cl)c1 [Example 22]	< 100 nM	< 100 nM	–
CC(C)C[C@H]1C(=O)N2C[C@]3(C[C@H]2C#N)C(=O)Nc2ccc(cc23)C=CCCCN1C(=O)OCc1ccccc1 [Example 1]	–	< 100 nM	EC50 ([1]; MRC-5 cells, hCoV-229E MOI 0.05, 6 days, ATPlite): 100 to 1000 nM
